Reference: patent US8796209B2, “Compositions and methods related to anti-FGF agents” (The Regents of the University of California, priority 2005, dated 2014)

Assays:
Format in all cases: cell-based
M21 human melanoma cells [1] = assay: Chemoresistance: cell viability with etoposide (MTS); conditions: etoposide 0.1-100 μM, 48 h
Experimental: In FIG. 10, results are provided showing suppression of FGF-induced drug resistance in M21 melanoma cells. Resistance of melanoma cells was to etoposide-induced apoptosis. M21 human melanoma cells were cultured in DMEM with 1% FBS for 48 h, and then treated with etoposide (0.1-100 μM) in the presence or absence of wt or mutant FGF for 48 h, with cell viability determined.
(§1) Cells were plated on well of 96-well tissue culture plates and serum-starved for 48-72 h in DMEM supplemented with 0-1% FBS. Then cells were treated with etoposide (up to 100 μM) and wt or mutant FGF for additional 24-48 h. Cell viability was determined using CellTiter 96 MTS assay (Promega) and caspases 3/7 activity was determined by using Caspase-Glo 3/7 assay kit (Promega). FIGS. 10 and 11.

M21 human melanoma cells [2] = assay: Chemoresistance: caspases 3/7 activity with etoposide; conditions: in presence of wt FGF
Experimental: M21 human melanoma cells were cultured in DMEM with 1% FBS for 48 h, and then treated with etoposide (0.1-100 μM) in the presence or absence of wt or mutant FGF for 48 h.
as §1

αvβ3-K562 cells = assay: Cell adhesion assay on immobilized FGF-1, αvβ3-K562 cells; conditions: 1 mM MnCl2
Experimental: Wells of 96-well microtiter plates were coated with FGF-1 at the indicated concentrations and remaining protein binding sites were blocked with 1 mg/ml BSA. Hepes-Tyrode buffer supplemental with 1 mM MnCl2) was used for adhesion assays. Prior to incubation with immobilized FGF-1, αvβ3-K562 cells were treated with 10 μg/ml anti-β3 function-blocking antibody 7E3 (triangle), anti-α5 function-blocking antibody KH72 (square), both 7E3 and KH72 (circle), or mouse IgG (diamond). BSA (cross) was used as a negative control. Data is shown as means+/−SD of triplicate experiments.
(§2) Wells of polystyrene 96-well non-tissue culture plate were coated with wild type or mutants FGF-1 as above. In adhesion assay, cells (10^5 cells/well) in 100 μl of Hepes-Tyrode buffer supplemented with 1 mM Mn^2+ were added to the wells and incubated at 37° C. for 1 h. After non-bound cells were removed by rinsing the wells with the same buffer, bound cells were quantified by measuring endogenous phosphatase activity (Prater et al., 1991)

K562 cells = assay: Cell adhesion assay on immobilized FGF-1, mock-transfected K562 cells; conditions: 1 mM MnCl2
Experimental: K562 cells were treated with 10 μg/ml anti-α5 function-blocking antibody KH72 (square) or mouse IgG (diamond) for 10 min on ice. Hepes-Tyrode buffer supplemented with 1 mM MnCl2) was used for adhesion assays. Bound cells were quantified by measuring endogenous phosphatase activity. BSA (cross) was used as a negative control. Data is shown as means+/−SD of triplicate experiments.
as §2

| Substance | effect on apoptosis induced by etoposide (M21 human melanoma cells [1]) | effect on caspase activation (M21 human melanoma cells [2]) | adhesion of αvβ3-K562 cells to the immobilized protein (αvβ3-K562 cells) | adhesion of mock-transfected K562 cells to the immobilized protein (K562 cells) |
| --- | --- | --- | --- | --- |
| R50E: FGF-1 mutant with the Arg-50 to Glu (R50E) mutation | enhanced apoptosis | blocked inhibition of caspase activation |  |  |
| Wild type: human FGF-1 (acidic FGF), wild type, expressed in E. coli |  |  | bound to immobilized FGF-1 in a dose-dependent manner | bound to immobilized FGF-1 in a dose-dependent manner |
